Patent US20230390401A1, “RAPIDLY RELEASED BIOORTHOGONAL CAGING GROUPS” (University of Utah Research Foundation, priority 2018, published 2023)
Where two headings read alike, the source gives them in different places.

Experiments:
[1] = Kinetics of Tz-induced release from ICPr/ICPrc groups in PBS:DMSO; conditions: for k1,elim, release of fluorophore from 3-oxopropyl intermediate: in PBS, after reaction with PEG-DPTz; for bimolecular rate constant k2: PEG-DPTz c=0.2 mM, excess probe c=2 mM, T=37° C., PBS:DMSO (9:1), pseudo-first order fit
Method: (§1) Fitting the disappearance of PEG-DPTz (c=0.2 mM) absorbance in the presence of excess ICPr-O-NA or ICPrc-NH-NA (c=2 mM;T=37° C., PBS:DMSO (9:1)) to a pseudo-first order rate equation provided the bimolecular rate constants k2(ICPr-O-NA)=4.0±0.2 M^−1s^−1 and k2(ICPrc-NH-NA)=1.1±0.2 M^−1s^−1, respectively. Release of the fluorophores in PBS from the postulated 3-oxopropyl intermediate was delayed relative to the reaction of the ICPr/ICPrc-groups with PEG-DPTz (k1,elim(HO-NA)=1.6×10^−4 s^−1; k1,elim(H2N-NA)=5.00×10^−5 s^−1; FIG. 4B, right column) in agreement with studies of cargo release from such groups. The aldehyde intermediate was detectable by NMR in DMSO-d6:D2O (9:1). To our delight, fluorophore release in diluted human serum (T=37° C., PBS:serum (1:1)) reached completion in few minutes because serum albumin can catalyze the β-elimination reaction.

[2] = Fluorophore release (β-elimination) in diluted human serum; conditions: T=37° C., PBS:serum (1:1)
Method: as §1

[3] = Stability in serum in the absence of Tz; type: in vitro ADME, human
[4] = tested on: zebrafish embryos; assay: In vivo uncaging of resorufin fluorescence in zebrafish embryos implanted with Tz-PS beads; conditions: c=10 μM, t=8 h, Tz-PS implanted into yolk sacs
[5] = tested on: A549 lung cancer cells; assay: Cytotoxicity assay (CellTiter-Glo 2.0 viability)
Method: A549 lung cancer cells (ATCC, USA) were maintained in a humidified CO2 (5%) incubator at 37° C. in RPMI (Thermo Fisher, USA) supplemented with 10% fetal bovine serum in the presence of 1% Penicillin-Streptomycin-Glutamine (Thermo Fisher, USA) and 0.2% Normocin (InvivoGen, USA).
The cells were plated in 96-well TC treated plates (PerkinElmer, USA) at a 6,000 cells/well density 24 h prior to the addition of the drugs. All drugs, prodrugs and PEG-DPTz in DMSO stock solution were serially diluted in pre-warmed culture medium at 37° C. For samples assessing the reaction-induced drug release, prodrugs were added to the cells first (100 μL final volume per well) in a series of final concentrations ranging from 0.005 to 10 μM followed by addition of PEG-DPTz (20, 40 and 80 μM).
After 72 h incubation at 37° C., cell proliferation was assessed by a CellTiter-Glo©2.0 viability assay according to the manufacturer's instructions. After 15 min incubation at 25° C., the medium was gently measured with Envision 2104 Multilabel Reader (PerkinElmer, USA) to get the luminescent based on quantitation of the ATP present, an indicator of metabolically active cells. The proliferation assay was performed in quadruplet measurements (n=4). EC50 values were derived from the normalized cell growth and Growth/Sigmoidal formula were fitted and generated with Origin 8.0. […] The results are expressed as the mean±standard deviation (n=4).

[6] = tested on: zebrafish embryos; conditions: medium c=0, 1, 10 μM, t=8 h
Method: Zebrafish embryos were used as a model organism to evaluate the activity of uncaged payload molecules in vivo. […] For the fluorescence study, Tz-PSs were implanted into the yolk sacs of zebrafish embryos followed by incubation with ICPr-rsf (c=10 μM). […] Mexiletine is a voltage-gated sodium channel blocker known to induce cardiac arrhythmia, and which has been reported to decrease heart rate.
UV-VIS photospectrometic kinetic measurements were performed on a microplate reader SpectramaX M5 (Molecular Device, USA) in 96-well plates or 1 mL quartz cuvette. Cell proliferation assays were performed on an Envision 2104 Multilabel Reader (PerkinElmer, USA). Zebrafish Imaging and Efficiency Test (Heart Rate Reduction) were performed with Zeiss SteREO Discovery.V8 microscope (Zeiss, Jena, Germany) fitted with a PentaFluor S 120 vertical illuminator and coupled with an Xcite Series 120PC light source.

[7] = read-out: EC50 cytotoxicity, prodrug combined with PEG-DPTz, A549 cells, prodrug + excess PEG-DPTz (c=80 μM), 72 h

## COCCOCCOCCOCCN1C(=O)c2cccc3c(O)ccc(c23)C1=O [HO-NA, N-(methyl-PEG4)-4-hydroxy-1,8-naphthalimide]
[1]
  k1,elim, release of fluorophore from 3-oxopropyl intermediate: 0.00016 s⁻¹

## [C-]#[N+]CCCOc1ccc2c3c(cccc13)C(=O)N(CCOCCOCCOCCOC)C2=O [ICPr-O-NA, N-(methyl-PEG4)-4-(3-isocyanopropyl-1-oxy)-1,8-naphthalimide]
[1]
  bimolecular rate constant k2: 4.0 ± 0.2 M⁻¹ s⁻¹
[2]
  apparent first-order rate constant k1,elim in serum: 0.0042 s⁻¹
[3]
  stability in serum: completely stable in serum for at least three days

## [C-]#[N+]CCCOc1ccc2nc3ccc(=O)cc-3oc2c1 [ICPr-rsf, 3-isocyanopropyl resorufin ether]
[4]
  fluorescence staining, fish with Tz-PS versus controls with unmodified beads: 5.2 fold

## [C-]#[N+]CCCOC(=O)Nc1ccc2c3c(cccc13)C(=O)N(CCOCCOCCOCCOC)C2=O [ICPrc-NH-NA]
[1]
  bimolecular rate constant k2: 1.1 ± 0.2 M⁻¹ s⁻¹
[2]
  apparent first-order rate constant k1,elim in serum: 0.0016 s⁻¹

## [C-]#[N+]CCCOC(=O)NC1CC(OC2CC(O)(C(=O)CO)Cc3c(O)c4c(c(O)c32)C(=O)c2c(OC)cccc2C4=O)OC(C)C1O (centres unmarked) [ICPrc-dox, N-(3-isocyanopropyl-1-carbamoyl)doxorubicin]
[5]; [7]
  EC50: 165 ± 35 nM

## [C-]#[N+]CCCOC(=O)NC(C)COc1c(C)cccc1C (centres unmarked) [ICPrc-mex, N-(3-isocyanopropyl-1-carbamoyl)mexiletine]
[6]
  heart rate in control fish bearing unmodified beads: no changes were observed
[6]; normalized to heart rate at t=0 h
  heart rate in fish with implanted Tz-PS: dose-dependent decrease in heart rate

## [C-]#[N+]CCCOC(=O)N1C2CN3C4=C(C(=O)C(N)=C(C)C4=O)C(COC(N)=O)C3(OC)C21 (centres unmarked) [ICPrc-mmC, N-(3-isocyanopropyl-1-carbamoyl)Mitomycin C]
[5]; [7]
  EC50: 244 ± 17 nM

## COCCOCCOCCOCCN1C(=O)c2cccc3c(N)ccc(c23)C1=O [Structure H2N-NA, N-(methyl-PEG4)-4-amino-1,8-naphthalimide]
[1]
  k1,elim, release of fluorophore from 3-oxopropyl intermediate: 5e-05 s⁻¹

## COc1cccc2c1C(=O)c1c(O)c3c(c(O)c1C2=O)C[C@@](O)(C(=O)CO)C[C@@H]3O[C@H]1C[C@H](N)[C@H](O)[C@H](C)O1 [dox, doxorubicin, reference compound]
[5]; Homo sapiens, A549, 72 h, read-out: EC50 cytotoxicity, free drug
  EC50: 144 ± 28 nM

## N-(methyl-PEG4)-4-(3-isocyanopropyl-carbamoyl)amino-1,8-naphthalimide [ICPrc-NH-NA]
[3]
  stability in serum: completely stable in serum for at least three days
